Assay results from patent US7709463B2, “Idraparinux (SanOrg34006) for treatment of venous events in patients with deep venous thrombosis” (Sanofi-Aventis, priority 2002, dated 2010).

What was measured:
Format in all cases: in vivo, human
[1] = test system: patients with confirmed symptomatic proximal DVT; assay: Change in thrombotic burden assessed by central adjudication committee (CUS and PLS vs baseline), phase II study
Description: (§1) The study design is illustrated in FIG. 1.
(§2) Each treatment group was to consist of 130 patients, of which at least 100 patients eligible for inclusion in the Intent-To-Treat (ITT) group. Subjects in the SanOrg34006 treatment groups were to be followed-up during a four-week period after the final assessments.
Primary efficacy parameter: change in thrombotic burden as assessed by the central adjudication committee using a 3-point ordinal outcome scale for the comparison of CUS and PLS (Perfusion Lung Scan) after 12 weeks of randomized treatment with baseline measurements (i.e. deterioration, normalization, or no relevant change) including a supplementary analysis on substantial improvement.
(§3) Secondary efficacy parameters: change in thrombotic burden using a binary scale (i.e. deterioration versus no deterioration); change of CUS on a 3-point ordinal scale; change of PLS on a 3-point ordinal scale; the composite clinical outcome (non-fatal symptomatic PE and/or recurrent DVT, death due to PE and/or DVT or unexplained, and any important change in therapeutic management of thrombotic events); coagulation markers: plasma D-dimer (fibrin fragment, released in process of thrombolysis; measure for ongoing thrombosis) and TAT (Thrombin-Antithrombin Complex) concentrations during the study treatment. • Safety

[2] = test system: patients with confirmed symptomatic proximal DVT; assay: Composite clinical outcome assessed by CAC (recurrent DVT, symptomatic PE or unexplained death), phase II study
Description: as §1, §2, §3

[3] = test system: patients with confirmed symptomatic proximal DVT; assay: Bleeding events during randomized treatment, phase II study
Description: as §1, §2
Primary safety parameters: incidence of major bleeding and decreased platelet count.

[4] = test system: patients with confirmed symptomatic proximal DVT; assay: Tolerability: adverse events, laboratory parameters, vital signs, phase II study
Description: as §1, §2
Secondary efficacy parameters: (serious) adverse events, laboratory parameters (hematology, biochemistry, coagulation status, platelet counts), and vital signs (blood pressure, heart rate, body weight).

[5] = Plasma concentrations / population pharmacokinetics of SanOrg34006, phase II study
Procedure: The secondary objective was to assess population pharmacokinetics of SanOrg34006.
Plasma concentrations of SanOrg34006 were assessed within 48 h prior to the administration of SanOrg34006 in Weeks 2, 4 and 7. In addition during Week 7 within the time frames 0.5-2 h, 2-6 h, 6-48 h and 120-168 h post dose. In a subset of patients a more extensive sampling scheme was applied with pre-dose samples before each administration and the serial scheme for Week 7 also applied to Week 1 and 12.

[6] = oral warfarin, 12-week course, ITT (N = 124)
[7] = oral warfarin, all patients with randomized treatment (N = 132)
[8] = Week 12 vs first administration
[9] = SanOrg34006 2.5 mg SC once weekly, 12 weeks, ITT (N = 125)
[10] = SanOrg34006 5 mg SC once weekly, 12 weeks, ITT (N = 128)
[11] = SanOrg34006 7.5 mg SC once weekly, 12 weeks, ITT (N = 118)
[12] = SanOrg34006 10 mg SC once weekly, 12 weeks, ITT (N = 119)

CC(=O)CC(c1ccccc1)c1c(O)c2ccccc2oc1=O (centres unmarked) [Warfarin, warfarin, reference compound]
Deterioration, overall change in thrombotic burden (2-point scale) [1, 6]: 9 (7.3) n (%)
Deterioration, overall change in thrombotic burden (3-point scale) [1, 6]: 9 (7.3) n (%)
No Deterioration, overall change in thrombotic burden (2-point scale) [1, 6]: 115 (92.7) n (%)
No Relevant Change, overall change in thrombotic burden (3-point scale) [1, 6]: 84 (67.7) n (%)
Normalization, overall change in thrombotic burden (3-point scale) [1, 6]: 31 (25.0) n (%)
Yes: fatal or non-fatal recurrent DVT, symptomatic PE or unexplained death (composite clinical outcome) [2, 6]: 2 (1.6) n (%)
Any Bleeding during randomized treatment [3, 7]: 11 (8.3) n (%)
Major Bleeding during randomized treatment [3, 7]: 1 (0.8) n (%)
No Major Bleeding during randomized treatment [3, 7]: 131 (99.2) n (%)
tolerability in terms of adverse events (other than bleeding events), laboratory parameters, and vital signs ([4]; all SanOrg34006 doses, warfarin): generally well tolerated

CO[C@H]1O[C@H](COS(=O)(=O)O)[C@@H](O[C@@H]2O[C@@H](C(=O)O)[C@@H](O[C@H]3O[C@H](COS(=O)(=O)O)[C@@H](O[C@@H]4O[C@H](C(=O)O)[C@@H](O[C@H]5O[C@H](COS(=O)(=O)O)[C@@H](OC)[C@H](OC)[C@H]5OC)[C@H](OC)[C@H]4OC)[C@H](OS(=O)(=O)O)[C@H]3OS(=O)(=O)O)[C@H](OC)[C@H]2OC)[C@H](OS(=O)(=O)O)[C@H]1OS(=O)(=O)O [SanOrg34006, methyl O-(2,3,4-tri-O-methyl-6-O-sulfo-α-D-glucopyranosyl)-(1→4)-O-(2,3-di-O-methyl-β-D-glucopyranosyluronic acid)-(1→4)-O-(2,3,6-tri-O-sulfo-α-D-glucopyranosyl)-(1→4)-O-(2,3-di-O-methyl-α-L-idopyranosyluronic acid)-(1→4)-2,3,6-tri-O-sulfo-α-D-glucopyranoside]
plasma concentrations relative to levels associated with an increased bleeding risk ([5]; 2.5 mg SanOrg34006): remained below the levels associated with an increased bleeding risk
share of patient population with plasma levels 'too low' in terms of the ACCP guidelines ([5]; 2.5 mg dose group): 75%
dose proportionality of pharmacokinetics ([5]; 2.5-10 mg once weekly): Dose-proportional
AUC values at steady state relative to first administration [5, 8]: twice as high
trough concentrations at steady state relative to first administration [5, 8]: three times as high
anti-Xa activity corresponding with plasma trough levels ([5]; dose of 2.5 mg, once a week): 0.09-0.26 anti-Xa U/mL
plasma trough levels (Cmin) ([5]; dose of 2.5 mg, once a week): 126 ± 63 ng/mL
time at which steady state had been reached ([5]; once-weekly administration): Week 12
Deterioration, overall change in thrombotic burden (2-point scale) [1, 9]: 6 (4.8) n (%)
Deterioration, overall change in thrombotic burden (3-point scale) [1, 9]: 6 (4.8) n (%)
No Deterioration, overall change in thrombotic burden (2-point scale) [1, 9]: 119 (95.2) n (%)
No Relevant Change, overall change in thrombotic burden (3-point scale) [1, 9]: 87 (69.6) n (%)
Normalization, overall change in thrombotic burden (3-point scale) [1, 9]: 32 (25.6) n (%)
Deterioration, overall change in thrombotic burden (2-point scale) [1, 10]: 8 (6.3) n (%)
Deterioration, overall change in thrombotic burden (3-point scale) [1, 10]: 8 (6.3) n (%)
No Deterioration, overall change in thrombotic burden (2-point scale) [1, 10]: 120 (93.8) n (%)
No Relevant Change, overall change in thrombotic burden (3-point scale) [1, 10]: 89 (69.5) n (%)
Normalization, overall change in thrombotic burden (3-point scale) [1, 10]: 31 (24.2) n (%)
Deterioration, overall change in thrombotic burden (2-point scale) [1, 11]: 8 (6.8) n (%)
Deterioration, overall change in thrombotic burden (3-point scale) [1, 11]: 8 (6.8) n (%)
No Deterioration, overall change in thrombotic burden (2-point scale) [1, 11]: 110 (93.2) n (%)
No Relevant Change, overall change in thrombotic burden (3-point scale) [1, 11]: 81 (68.6) n (%)
Normalization, overall change in thrombotic burden (3-point scale) [1, 11]: 29 (24.6) n (%)
Deterioration, overall change in thrombotic burden (2-point scale) [1, 12]: 15 (12.6) n (%)
Deterioration, overall change in thrombotic burden (3-point scale) [1, 12]: 15 (12.6) n (%)
No Deterioration, overall change in thrombotic burden (2-point scale) [1, 12]: 104 (87.4) n (%)
No Relevant Change, overall change in thrombotic burden (3-point scale) [1, 12]: 74 (62.2) n (%)
Normalization, overall change in thrombotic burden (3-point scale) [1, 12]: 30 (25.2) n (%)
efficacy compared with warfarin ([1]; SanOrg34006 doses tested): No differences in efficacy
dose-response relationship for primary and secondary efficacy endpoints ([1]; tested doses 2.5-10 mg): No statistically significant dose-response relationship
No fatal or non-fatal recurrent DVT, symptomatic PE or unexplained death (composite clinical outcome) [2, 9]: 125 (100.0) n (%)
Yes: fatal or non-fatal recurrent DVT, symptomatic PE or unexplained death (composite clinical outcome) [2, 9]: 0 (0.0) n (%)
No fatal or non-fatal recurrent DVT, symptomatic PE or unexplained death (composite clinical outcome) [2, 10]: 126 (98.4) n (%)
Yes: fatal or non-fatal recurrent DVT, symptomatic PE or unexplained death (composite clinical outcome) [2, 10]: 2 (1.6) n (%)
No fatal or non-fatal recurrent DVT, symptomatic PE or unexplained death (composite clinical outcome) [2, 11]: 118 (100.0) n (%)
Yes: fatal or non-fatal recurrent DVT, symptomatic PE or unexplained death (composite clinical outcome) [2, 11]: 0 (0.0) n (%)
No fatal or non-fatal recurrent DVT, symptomatic PE or unexplained death (composite clinical outcome) [2, 12]: 116 (97.5) n (%)
Yes: fatal or non-fatal recurrent DVT, symptomatic PE or unexplained death (composite clinical outcome) [2, 12]: 3 (2.5) n (%)
dose group outcome under stopping rule for major bleedings ([3]; in vivo): prematurely discontinued
tolerability in terms of adverse events (other than bleeding events), laboratory parameters, and vital signs ([4]; in vivo): generally well tolerated
